What is called LD50 is the dose expected to kill half of the subjects tested.

These results are taken from patent US4423218A, “Antibiotic neplanocin A” (Toyo Jozo Kabushiki Kaisha, priority 1978, dated 1983).

One data set is described as follows: in vivo. The note with it: mouse, ip, mice.
Data set [1] has as its system Helminthosporium oryzae M 0306. Kind of data set: Growth inhibitory activity on plant pathogenic fungi (agar plate). The format is cell-based. To be noted: Bipolaris oryzae, M0306; 100 γ/ml solution, agar plate of Helminthosporium oryzae M 0306; read-out: inhibitory zone diameter. The source says:
(1) Growth inhibitory activity on plant pathogenic fungi: […]

Data set [2] in a line: Repeated intraperitoneal administration for 14 days, mortality. The data set is classed as in vivo. To be noted: intraperitoneally for 14 days, 5 mg/kg/day.
A further data set in a line: Nature (basicity). The data set is classed as physicochemical.
Another data set in a line: Solubility. The data set is classed as physicochemical.

In turn, `Nc1ncnc2c1ncn2C1C=C(CO)C(O)C1O` (single isomer, unassigned) [neplanocin A] displayed an LD50 in the data set “in vivo” of 13.7 mg/kg. Moreover, in data set [1], the zone of inhibition at 100 µg/mL amounted to 18.9 mm. Further, the mortalities entry in data set [2] is “No mortalities were observed”. In “Nature (basicity)”, the Nature result is reported as “weakly basic”. Besides, the Solubility result in “Solubility” (acetic acid) was “Soluble”; in the data set “Solubility” (aqueous acetone), “Soluble”; in the data set “Solubility” (benzene), “Insoluble”; in “Solubility” (chloroform) it was “Insoluble”; in the data set “Solubility” (dimethylformamide), “Soluble”; in “Solubility” (dimethylsulfoxide), “Soluble”. For the same compound, the Solubility entry in the data set “Solubility” (ethyl acetate) was “Insoluble”; in the data set “Solubility” (hexane) it was “Insoluble”; in the data set “Solubility” (water), “Soluble”.
